Results: ChEMBL document CHEMBL1201862, “PubChem BioAssay data set” (2004)
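A five-concentration, 48-hour dose response in 96-well plates underlies each endpoint, interpolated linearly between surrounding concentrations. GI50 is the concentration that inhibits growth by half.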 Activity calls are given as the source filed them. Cut-off read from the data, not from the text of the source: active = GI50 up to about 1.1 µM and inactive = higher.

Experiments:
Assay in all cases: NCI tumour cell line growth inhibition, 48 h
IGROV-1 = tested on: IGROV-1
A549 = tested on: A549
MDA-MB-435 = tested on: MDA-MB-435
MOLT-4 = tested on: MOLT-4
SK-MEL-28 = tested on: SK-MEL-28
MCF7 = tested on: MCF7
MDA-MB-231 = tested on: MDA-MB-231
SF-268 = tested on: SF-268
UACC-257 = tested on: UACC-257
OVCAR-3 = tested on: OVCAR-3
OVCAR-5 = tested on: OVCAR-5
PC-3 = tested on: PC-3
HCC 2998 = tested on: HCC 2998
M14 = tested on: M14
MDA-N = tested on: MDA-N
UACC-62 = tested on: UACC-62
A498 = tested on: A498
K562 = tested on: K562
RPMI-8226 = tested on: RPMI-8226
HOP-62 = tested on: HOP-62

Measured: GI50

CC1=CCCC(C)(O)C2CC(CCC3(C)OC3CC1)C(C)C(=O)O2 (configuration not stated)
inactive: IGROV-1 > 100 µM | A549 > 100 µM | MDA-MB-435 > 100 µM | MOLT-4 43.7 µM | SK-MEL-28 > 100 µM | MCF7 > 100 µM | MDA-MB-231 > 100 µM | SF-268 > 100 µM | UACC-257 > 100 µM | OVCAR-3 > 100 µM | OVCAR-5 > 100 µM | PC-3 > 100 µM | HCC 2998 > 100 µM | M14 > 100 µM | MDA-N > 100 µM | UACC-62 > 100 µM | A498 > 100 µM | K562 > 100 µM | RPMI-8226 > 100 µM

CC(=O)[C@H]1[C@H](O)C[C@@]2(C)[C@@H]3CCc4cc(O)c(OC5OC(CO)C(O)C(O)C5O)cc4C3(C)C(=O)C[C@]12C (some centres not stated)
inactive: IGROV-1 > 100 µM | A549 > 100 µM | MDA-MB-435 > 100 µM | MOLT-4 > 100 µM | SK-MEL-28 > 100 µM | MCF7 > 100 µM | MDA-MB-231 > 100 µM | SF-268 > 100 µM | UACC-257 > 100 µM | OVCAR-3 > 100 µM | OVCAR-5 > 100 µM | PC-3 > 100 µM | HCC 2998 > 100 µM | HOP-62 > 100 µM | M14 > 100 µM | MDA-N > 100 µM | UACC-62 > 100 µM | A498 > 100 µM | K562 > 100 µM

O=C(NNC(=S)Nc1ccc(Cl)cc1)C12CC3CC(CC(C3)C1)C2
inactive: IGROV-1 3.34 µM | A549 3.84 µM | MDA-MB-435 7.53 µM | MOLT-4 1.98 µM | SK-MEL-28 14.8 µM | MCF7 3.37 µM | MDA-MB-231 3.88 µM | SF-268 6.05 µM | UACC-257 6.15 µM | OVCAR-3 2.45 µM | OVCAR-5 20.3 µM | PC-3 3.19 µM | HCC 2998 7.1 µM | HOP-62 11.2 µM | M14 7.74 µM | MDA-N 10.2 µM | UACC-62 3.88 µM | A498 4.82 µM | K562 4.24 µM

Cc1ccc2c(c1)Nc1cc(C(F)(F)F)ccc1[PH]2=O (configuration not stated)
inactive: IGROV-1 25.9 µM | A549 30.4 µM | MDA-MB-435 37.6 µM | MOLT-4 11 µM | SK-MEL-28 78.5 µM | MCF7 9.59 µM | MDA-MB-231 13.7 µM | SF-268 34 µM | UACC-257 28.2 µM | OVCAR-3 30 µM | OVCAR-5 50.2 µM | PC-3 21.7 µM | HCC 2998 44.6 µM | HOP-62 29.1 µM | M14 65.2 µM | MDA-N 41.2 µM | UACC-62 10.5 µM | A498 9.53 µM | K562 13.1 µM

Cc1c(O)c(OC2OC(CO)C(O)C(O)C2O)cc2c1C=C[C@@H]1[C@@]2(C)C(=O)C[C@]2(C)[C@@H]([C@@](C)(O)C(O)/C=C/C(C)(C)O)[C@H](O)C[C@@]12C (some centres not stated)
inactive: IGROV-1 > 100 µM | A549 > 100 µM | MDA-MB-435 > 100 µM | MOLT-4 > 100 µM | SK-MEL-28 > 100 µM | MCF7 > 100 µM | MDA-MB-231 > 100 µM | SF-268 > 100 µM | UACC-257 > 100 µM | OVCAR-3 > 100 µM | OVCAR-5 > 100 µM | PC-3 > 100 µM | HCC 2998 > 100 µM | HOP-62 > 100 µM | M14 > 100 µM | MDA-N > 100 µM | UACC-62 > 100 µM | A498 > 100 µM | K562 > 100 µM

COc1ccc(-c2nnc3n(Cc4ccccc4)c4ccccc4n3c2=O)cc1
inactive: IGROV-1 13.3 µM | A549 45 µM | MDA-MB-435 4.76 µM | MOLT-4 > 100 µM | SK-MEL-28 36.4 µM | MCF7 29.4 µM | MDA-MB-231 26.1 µM | SF-268 22.7 µM | UACC-257 37.4 µM | OVCAR-5 42.8 µM | PC-3 5.92 µM | HCC 2998 > 100 µM | HOP-62 1.92 µM | M14 77.6 µM | MDA-N > 100 µM | A498 22.7 µM

O=c1[nH][nH]c(=O)n1Cc1ccccc1
inactive: A549 > 100 µM | MDA-MB-435 > 100 µM | MOLT-4 > 100 µM | SK-MEL-28 > 100 µM | MCF7 > 100 µM | MDA-MB-231 > 100 µM | SF-268 > 100 µM | UACC-257 > 100 µM | OVCAR-3 > 100 µM | OVCAR-5 > 100 µM | PC-3 > 100 µM | HCC 2998 > 100 µM | M14 > 100 µM | MDA-N > 100 µM | UACC-62 > 100 µM | A498 > 100 µM | K562 > 100 µM | RPMI-8226 > 100 µM

Cc1nn(C(=O)Cc2ccccc2)c2c1C(c1ccc(/C=C/c3ccccc3)cc1)SC(=N)N2 (configuration not stated)
inactive: IGROV-1 > 100 µM | A549 > 100 µM | MDA-MB-435 > 100 µM | MOLT-4 > 100 µM | SK-MEL-28 > 100 µM | MCF7 > 100 µM | MDA-MB-231 > 100 µM | SF-268 > 100 µM | UACC-257 > 100 µM | PC-3 > 100 µM | HCC 2998 > 100 µM | HOP-62 > 100 µM | M14 > 100 µM | MDA-N > 100 µM | UACC-62 > 100 µM | A498 > 100 µM | K562 > 100 µM | RPMI-8226 > 100 µM
